Key:
ColQ1-CU [1] = biological target: T1, ColQ1-CU (Bacillus cereus, UniProt B9J3S4); assay type: binding, B. cereus; settings: intact protein HPLC-MS, overnight treatment
HDAC-8 = biological target: T2, HDAC-8 (Homo sapiens, UniProt Q9BY41); experiment: Human off-target inhibition, HDAC-8; assay type: biochemical
T2 sequence (Q9BY41 1-377): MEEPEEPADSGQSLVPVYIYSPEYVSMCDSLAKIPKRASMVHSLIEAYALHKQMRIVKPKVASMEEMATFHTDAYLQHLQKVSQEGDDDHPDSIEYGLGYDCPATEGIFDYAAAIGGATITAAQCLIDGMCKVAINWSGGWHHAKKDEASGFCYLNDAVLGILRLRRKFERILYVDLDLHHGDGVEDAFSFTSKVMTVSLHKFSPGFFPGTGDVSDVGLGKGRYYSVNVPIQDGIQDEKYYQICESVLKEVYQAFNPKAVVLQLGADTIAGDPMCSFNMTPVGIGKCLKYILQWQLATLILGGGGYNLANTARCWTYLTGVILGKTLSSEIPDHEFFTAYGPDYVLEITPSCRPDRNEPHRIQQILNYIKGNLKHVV
Experimental: (§1) To assess the selectivity of the compounds over human MMPs and on other bacterial collagenases, selected compounds were tested against ColG-CU and ColH-PD from C. histolyticum and ColA-CU from B. cereus strain ATCC14579. In addition, the compounds were tested on catalytic domains of three human MMPs, which are characterized by different depths of the S1′ binding pocket (MMP-1 (shallow), −2 (intermediate), and −3 (deep)). They were also tested against other important human off-targets, which are involved in gene expression and the processing of TNF-α; these include HDAC-3, -8, TACE (ADAM-17),[33],[34] and COX-1.

[2] = system: B. cereus collagenases released in the NHDF infection model; assay type: cell-based, B. cereus AH187
MMP-1 = biological target: T3, MMP-1 (Homo sapiens, UniProt P03956); experiment: MMP inhibition assay, MMP-1; assay type: biochemical
T3 construct: catalytic domains of three human MMPs; purchased Sigma-Aldrich
T3 sequence (P03956 98-276 limits assumed): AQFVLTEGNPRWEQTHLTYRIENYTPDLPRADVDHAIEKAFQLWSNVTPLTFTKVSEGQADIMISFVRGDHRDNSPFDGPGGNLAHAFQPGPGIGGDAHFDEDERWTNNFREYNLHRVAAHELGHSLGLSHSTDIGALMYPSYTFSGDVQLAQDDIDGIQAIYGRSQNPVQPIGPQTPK
Experimental: as §1
(§2) The MMP inhibition assay (Sigma-Aldrich, Saint Louise, MO) was performed as previously reported and in accordance with the manufacturer’s instructions. The fluorescence signals were measured in a CLARIOstar plate reader (BMG LABTECH, Ortenberg, Germany) at a concentration of 100 μM.

TACE (ADAM-17) = TACE (ADAM-17) (Homo sapiens, UniProt P78536); experiment: Human off-target inhibition, TACE; assay type: biochemical
Experimental: as §1

ColA-CU = ColA-CU (Bacillus cereus, UniProt Q81BJ6); experiment: biochemical; assay type: biochemical, B. cereus strain ATCC14579; settings: 100 μM; read-out: Percent inhibition of ColA-CU
COX-1 = COX-1 (Homo sapiens, UniProt P23219); experiment: Human off-target inhibition, COX-1; assay type: biochemical
Experimental: as §1

[3] = system: B. cereus AH187 infection; assay type: in vivo, Galleria mellonella
ColG-CU = ColG-CU (Hathewaya histolytica, UniProt Q9X721); experiment: biochemical; assay type: biochemical, C. histolyticum; settings: 100 μM; read-out: Percent inhibition of ColG-CU
[4] = system: NHDF cells infected with B. cereus; experiment: NHDF infection model, cell morphology/attachment and fibrillar collagen (picrosirius red); assay type: cell-based, human
HDAC-3 = HDAC-3 (Homo sapiens, UniProt O15379); experiment: Human off-target inhibition, HDAC-3; assay type: biochemical
Experimental: as §1

MMP-3 = biological target: T4, MMP-3 (Homo sapiens, UniProt P08254); experiment: MMP inhibition assay, MMP-3; assay type: biochemical
T4 construct: catalytic domains of three human MMPs; purchased Sigma-Aldrich
Experimental: as §1, §2

B. cereus AH187 = experiment: B. cereus growth inhibition assay; assay type: cell-based; settings: Bacillus cereus, AH187, 48 h, read-out: MIC50 (µM) AH187
MMP-2 = biological target: T5, MMP-2 (Homo sapiens, UniProt P08253); experiment: MMP inhibition assay, MMP-2; assay type: biochemical
T5 construct: catalytic domains of three human MMPs; purchased Sigma-Aldrich
Experimental: as §1, §2

ColH-PD = ColH-PD (Hathewaya histolytica, UniProt Q46085); experiment: biochemical; assay type: biochemical, C. histolyticum; settings: 100 μM; read-out: Percent inhibition of ColH-PD
ColQ1-CU [5] = biological target: T1, ColQ1-CU; experiment: biochemical; set-up: species or system B. cereus strain Q1
[6] = system: Galleria mellonella larvae; experiment: Galleria mellonella larvae treated with compound only in PBS; assay type: in vivo; settings: no bacteria
Experimental: Figure 8 Survival analysis of Galleria mellonella larvae treated with Bacillus cereus AH187 with and without 14 and tiludronate disodium. Each curve represents results of three independent experiments; the statistical difference between groups treated with 100, 50, and 25 μM of compound 14 and B. cereus AH187 and with the group treated only with B. cereus AH187 is p < 0.0001, p = 0.0039, and p = 0.0173, respectively. The statistical difference between groups treated with 100 μM tiludronate disodium and with B. cereus AH187 is p = 0.0032 (log-rank test). The survival rate for the larvae treated with compound 14 and tiludronate disodium in PBS was 100%.
G. mellonella larvae were purchased from a fishing store. Injections were carried out using an LA120 syringe pump (Landgraf Laborsysteme, Langenhagen, Germany) equipped with 1 mL Injekt-F tuberculin syringes (B. Braun, Melsungen, Germany) and Sterican 0.30 × […], 30 G × 1.5 needles (B. Braun). The larvae were divided into five groups depending on their treatment: (i) sterile PBS, (ii) no injection, (iii) only compound, (iv) BC AH187 bacterial suspension, and (v) BC AH187 bacterial suspension with compound. Larvae were incubated at 37 °C for 3 days and inspected twice daily. The total larvae used in all three experiments were 40 larvae per group.

ColH = settings: recently identified inhibitors, Figure 1b; cited from earlier work

T1 sequence (B9J3S4 94-765 limits assumed): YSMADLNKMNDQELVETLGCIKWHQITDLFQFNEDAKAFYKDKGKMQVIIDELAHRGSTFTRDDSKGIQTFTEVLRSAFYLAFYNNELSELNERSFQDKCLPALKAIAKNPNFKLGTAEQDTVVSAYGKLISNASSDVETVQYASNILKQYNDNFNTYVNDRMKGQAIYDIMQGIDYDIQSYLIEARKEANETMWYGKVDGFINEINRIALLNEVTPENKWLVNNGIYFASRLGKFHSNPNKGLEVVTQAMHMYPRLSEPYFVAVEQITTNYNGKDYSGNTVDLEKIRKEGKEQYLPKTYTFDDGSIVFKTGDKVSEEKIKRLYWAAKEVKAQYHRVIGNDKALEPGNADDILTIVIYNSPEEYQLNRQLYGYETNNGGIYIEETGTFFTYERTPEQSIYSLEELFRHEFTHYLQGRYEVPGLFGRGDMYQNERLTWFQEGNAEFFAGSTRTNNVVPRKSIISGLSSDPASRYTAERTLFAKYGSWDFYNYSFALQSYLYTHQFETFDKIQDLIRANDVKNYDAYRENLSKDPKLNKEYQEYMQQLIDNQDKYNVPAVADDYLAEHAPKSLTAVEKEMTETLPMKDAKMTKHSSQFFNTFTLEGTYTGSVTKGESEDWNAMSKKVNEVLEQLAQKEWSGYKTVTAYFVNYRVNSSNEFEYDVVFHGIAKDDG
T5 sequence (P08253 110-444 limits assumed): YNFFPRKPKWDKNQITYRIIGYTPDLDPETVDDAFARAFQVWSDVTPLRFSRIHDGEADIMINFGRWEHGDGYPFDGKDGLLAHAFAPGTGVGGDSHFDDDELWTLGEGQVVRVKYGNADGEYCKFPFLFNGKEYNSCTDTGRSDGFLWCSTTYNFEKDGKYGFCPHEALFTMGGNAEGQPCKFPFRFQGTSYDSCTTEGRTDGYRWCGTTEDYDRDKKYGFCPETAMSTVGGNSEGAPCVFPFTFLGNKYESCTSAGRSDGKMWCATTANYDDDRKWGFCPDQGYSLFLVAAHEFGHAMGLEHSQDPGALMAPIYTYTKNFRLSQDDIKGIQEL
TACE (ADAM-17), sequence (P78536 215-824): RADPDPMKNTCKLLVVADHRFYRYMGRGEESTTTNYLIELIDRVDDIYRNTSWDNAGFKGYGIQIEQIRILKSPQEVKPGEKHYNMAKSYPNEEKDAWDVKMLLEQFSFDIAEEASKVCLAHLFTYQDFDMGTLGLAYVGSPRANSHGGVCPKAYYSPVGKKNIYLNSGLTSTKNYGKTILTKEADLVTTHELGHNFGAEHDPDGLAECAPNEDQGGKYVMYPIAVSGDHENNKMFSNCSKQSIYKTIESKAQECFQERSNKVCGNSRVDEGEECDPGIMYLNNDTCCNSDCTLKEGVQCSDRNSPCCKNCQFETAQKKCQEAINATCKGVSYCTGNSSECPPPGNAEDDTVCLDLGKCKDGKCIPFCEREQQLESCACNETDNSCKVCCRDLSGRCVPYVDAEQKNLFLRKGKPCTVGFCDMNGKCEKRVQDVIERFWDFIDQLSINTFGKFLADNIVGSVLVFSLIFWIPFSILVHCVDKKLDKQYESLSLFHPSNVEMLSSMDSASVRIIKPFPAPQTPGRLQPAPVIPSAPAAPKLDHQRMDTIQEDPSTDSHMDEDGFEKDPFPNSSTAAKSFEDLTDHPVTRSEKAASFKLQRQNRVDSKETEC
ColH-PD, sequence (Q46085 331-721 limits assumed): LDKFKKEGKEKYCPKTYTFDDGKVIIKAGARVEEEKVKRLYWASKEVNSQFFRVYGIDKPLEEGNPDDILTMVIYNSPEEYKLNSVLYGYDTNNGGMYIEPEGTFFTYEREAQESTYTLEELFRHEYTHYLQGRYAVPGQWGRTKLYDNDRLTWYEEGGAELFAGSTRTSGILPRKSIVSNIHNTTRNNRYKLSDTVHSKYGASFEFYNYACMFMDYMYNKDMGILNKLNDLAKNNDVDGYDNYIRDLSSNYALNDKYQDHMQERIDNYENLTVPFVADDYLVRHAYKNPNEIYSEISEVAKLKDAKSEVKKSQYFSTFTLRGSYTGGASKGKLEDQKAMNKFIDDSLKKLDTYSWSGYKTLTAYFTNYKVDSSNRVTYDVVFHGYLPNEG
COX-1, sequence (P23219 24-599): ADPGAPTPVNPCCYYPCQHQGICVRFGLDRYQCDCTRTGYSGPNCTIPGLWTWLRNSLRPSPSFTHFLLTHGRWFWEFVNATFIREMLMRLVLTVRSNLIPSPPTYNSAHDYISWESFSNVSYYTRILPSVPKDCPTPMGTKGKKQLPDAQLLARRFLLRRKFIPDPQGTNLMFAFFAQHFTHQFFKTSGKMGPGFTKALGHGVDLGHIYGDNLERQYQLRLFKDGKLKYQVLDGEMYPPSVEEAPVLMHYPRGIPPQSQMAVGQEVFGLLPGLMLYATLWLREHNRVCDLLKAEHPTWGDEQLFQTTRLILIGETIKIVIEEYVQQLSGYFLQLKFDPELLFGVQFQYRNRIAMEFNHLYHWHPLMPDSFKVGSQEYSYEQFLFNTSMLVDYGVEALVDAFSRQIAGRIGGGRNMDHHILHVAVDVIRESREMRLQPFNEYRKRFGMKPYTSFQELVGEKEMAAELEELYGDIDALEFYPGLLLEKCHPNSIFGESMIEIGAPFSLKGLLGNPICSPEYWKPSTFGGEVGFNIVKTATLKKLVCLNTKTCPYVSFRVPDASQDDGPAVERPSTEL
HDAC-3, sequence (O15379 whole entry): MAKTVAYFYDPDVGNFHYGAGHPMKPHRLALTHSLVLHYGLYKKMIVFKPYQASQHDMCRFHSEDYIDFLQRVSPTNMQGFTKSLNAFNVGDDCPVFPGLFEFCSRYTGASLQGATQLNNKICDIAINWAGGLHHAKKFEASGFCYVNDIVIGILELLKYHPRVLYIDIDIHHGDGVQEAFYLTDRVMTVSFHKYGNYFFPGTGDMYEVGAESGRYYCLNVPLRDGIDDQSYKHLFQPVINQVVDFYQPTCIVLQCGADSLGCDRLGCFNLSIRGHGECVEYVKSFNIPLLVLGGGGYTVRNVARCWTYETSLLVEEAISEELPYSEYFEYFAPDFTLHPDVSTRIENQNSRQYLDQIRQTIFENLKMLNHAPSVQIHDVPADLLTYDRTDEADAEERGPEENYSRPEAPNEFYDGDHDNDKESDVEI
HDAC-3, sequence (Q9Y618 395-489 partner limits assumed): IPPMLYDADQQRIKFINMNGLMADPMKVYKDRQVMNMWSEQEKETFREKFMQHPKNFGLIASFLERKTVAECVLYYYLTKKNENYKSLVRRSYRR
T4 sequence (P08254 100-272 limits assumed): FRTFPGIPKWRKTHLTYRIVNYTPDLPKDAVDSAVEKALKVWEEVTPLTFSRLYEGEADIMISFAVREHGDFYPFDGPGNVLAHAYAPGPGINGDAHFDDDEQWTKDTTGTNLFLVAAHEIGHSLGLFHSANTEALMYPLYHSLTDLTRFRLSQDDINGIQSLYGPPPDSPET
ColA-CU, sequence (Q81BJ6 93-764): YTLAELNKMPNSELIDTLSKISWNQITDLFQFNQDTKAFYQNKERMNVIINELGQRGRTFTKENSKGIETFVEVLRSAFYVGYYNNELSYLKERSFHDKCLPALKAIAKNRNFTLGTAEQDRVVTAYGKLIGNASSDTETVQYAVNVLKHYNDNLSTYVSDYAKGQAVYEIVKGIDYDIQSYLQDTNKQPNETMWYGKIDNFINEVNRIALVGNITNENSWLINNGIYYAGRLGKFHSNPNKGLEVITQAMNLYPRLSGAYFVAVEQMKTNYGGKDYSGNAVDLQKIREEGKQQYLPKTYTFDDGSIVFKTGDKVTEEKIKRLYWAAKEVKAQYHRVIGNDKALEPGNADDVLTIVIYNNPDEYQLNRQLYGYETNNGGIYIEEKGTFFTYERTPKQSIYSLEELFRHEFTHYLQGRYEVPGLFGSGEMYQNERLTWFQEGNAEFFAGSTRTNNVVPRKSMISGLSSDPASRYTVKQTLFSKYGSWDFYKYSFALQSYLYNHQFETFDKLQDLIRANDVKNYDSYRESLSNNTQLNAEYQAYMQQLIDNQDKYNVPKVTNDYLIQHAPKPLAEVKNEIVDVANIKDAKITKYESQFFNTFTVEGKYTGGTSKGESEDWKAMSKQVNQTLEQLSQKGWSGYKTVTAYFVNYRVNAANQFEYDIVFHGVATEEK
ColG-CU, sequence (Q9X721 111-786): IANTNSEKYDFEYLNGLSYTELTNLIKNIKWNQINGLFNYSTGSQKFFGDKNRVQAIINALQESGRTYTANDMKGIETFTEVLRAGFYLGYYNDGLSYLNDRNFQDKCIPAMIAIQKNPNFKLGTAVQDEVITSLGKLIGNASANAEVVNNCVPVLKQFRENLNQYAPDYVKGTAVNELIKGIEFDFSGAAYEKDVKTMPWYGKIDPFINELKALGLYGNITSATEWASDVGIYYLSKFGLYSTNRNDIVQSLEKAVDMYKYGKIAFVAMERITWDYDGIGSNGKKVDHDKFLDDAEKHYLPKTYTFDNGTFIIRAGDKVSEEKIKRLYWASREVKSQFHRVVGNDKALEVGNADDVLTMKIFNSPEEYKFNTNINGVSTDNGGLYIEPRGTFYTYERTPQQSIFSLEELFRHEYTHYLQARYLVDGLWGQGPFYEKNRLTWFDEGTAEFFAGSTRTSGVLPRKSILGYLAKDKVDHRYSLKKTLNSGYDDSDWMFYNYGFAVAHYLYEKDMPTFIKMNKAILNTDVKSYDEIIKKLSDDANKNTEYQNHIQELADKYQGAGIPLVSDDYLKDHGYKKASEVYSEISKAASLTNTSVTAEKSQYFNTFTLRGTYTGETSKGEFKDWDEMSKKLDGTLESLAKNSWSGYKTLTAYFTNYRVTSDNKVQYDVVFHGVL

In the case of CNC(=O)[C@H](Cc1c[nH]c2ccccc12)NC(=O)[C@@H](CC(=O)NO)CC(C)C [Ilomastat, reference compound], the “Covalent modification of ColQ1-CU” value (ColQ1-CU [1]) is reported as “No molecular masses displayed a mass shift indicating a covalently bound inhibitor”.
In the case of O=P([O-])(O)C(Sc1ccc(Cl)cc1)P(=O)([O-])O.[Na+].[Na+] [Tiludronate disodium, reference compound], the IC50 (HDAC-8) is reported as over 100 µM, the “Concentration giving complete inhibition of gelatinolytic activity” value [2] is reported as 100 µM and the IC50 (MMP-1) is reported as 50 ± 10 µM. It also gave an IC50 (TACE (ADAM-17)) of over 100 µM, an inhibition at 100 µM (ColA-CU) of 72 ± 2% and an IC50 (COX-1) of over 100 µM. For the same compound, the “Increase in survival of infected larvae” value ([3]; 100 μM) was 40%, the “Survival of infected larvae vs control without inhibitor” value ([3]; 37 °C, 3 days) was “ameliorated the survival of the larvae in a dose-dependent manner” and the inhibition at 100 µM (ColG-CU) was 28 ± 7%. The “Concentration showing dose-dependent effects on NHDF morphology, fibrillar ECM collagen content and LDH release” value [4] was at least 100 μM, the IC50 (HDAC-3) was over 100 µM and the IC50 (MMP-3) was over 100 µM. For the same compound, the MIC50 (B. cereus AH187) was 200 µM, the IC50 (MMP-2) was over 100 µM and the inhibition at 100 µM (ColH-PD) was 91 ± 2%. For the same compound, the inhibition at 100 µM (ColQ1-CU [5]) was 63 ± 3% and the “Survival rate of larvae treated with compound in PBS” value [6] was 100%.
For CC(=O)c1ccc(NC(=O)CS)cc1 [Compound 4b], the IC50 (ColH) is listed as 0.017 µM.

From publication PMC9574867, “Discovery and Characterization of Synthesized and FDA-Approved Inhibitors of Clostridial and Bacillary Collagenases” (Journal of Medicinal Chemistry, 2022)
